# Laboratory results: PubChem BioAssay AID2744 (NMMLSC, 2010)
# Active and inactive are the calls of the source.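 How the source made its calls: active means fitted half-maximal concentration for changing reporter fluorescence at or below a set limit; inactive means the rest.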
# Target: Citrate synthase, peroxisomal (Saccharomyces cerevisiae (strain ATCC 204508 / S288c)) (UniProt P08679)
# Assay: yeast TOR pathway CIT2-GFP reporter potency – flow cytometry, MLPCN hits, dose response (AID 2744)
# Settings: S. cerevisiae CIT2-GFP strain, 3 h, at 33 µM (top of the series)
# Sequence of Citrate synthase, peroxisomal (Saccharomyces cerevisiae (strain ATCC 204508 / S288c)) (P08679 whole entry, looked up): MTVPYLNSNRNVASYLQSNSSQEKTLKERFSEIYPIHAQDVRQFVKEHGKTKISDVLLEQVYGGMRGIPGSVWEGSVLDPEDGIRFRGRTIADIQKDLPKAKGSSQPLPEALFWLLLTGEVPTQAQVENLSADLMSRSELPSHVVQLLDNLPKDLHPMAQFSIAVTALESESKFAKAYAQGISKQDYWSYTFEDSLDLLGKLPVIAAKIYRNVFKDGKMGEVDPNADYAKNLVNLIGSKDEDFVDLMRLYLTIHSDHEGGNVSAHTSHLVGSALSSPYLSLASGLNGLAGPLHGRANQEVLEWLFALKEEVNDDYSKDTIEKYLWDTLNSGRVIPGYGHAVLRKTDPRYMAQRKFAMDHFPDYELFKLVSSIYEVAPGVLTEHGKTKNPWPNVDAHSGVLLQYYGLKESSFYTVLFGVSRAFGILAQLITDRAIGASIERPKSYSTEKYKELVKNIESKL
row,SMILES,"GFP fluorescence, higher = induction"
1,CC(C)(C)n1nc(-c2ccc(F)cc2)c2c(N)ncnc21,inactive
2,O=C(Oc1c(Cl)cc(Cl)c2cccnc12)c1cccc([N+](=O)[O-])c1,inactive
3,Cc1ccc(S(=O)(=O)c2ncccc2[N+](=O)[O-])cc1,inactive
4,COc1ccc2c(c1)c1nnc(SC)nc1n2C,inactive
5,COc1cc(N=c2ssnc2Cl)cc(OC)c1,inactive
6,O=[N+]([O-])c1cc(Cl)c2cccnc2c1O,inactive
7,Cc1ccc2c(c1)c(/C=C/c1cc[n+](C)cc1)c(C)n2C,inactive
8,Cc1cccc(/C=C/C(=O)c2ccc([N+](=O)[O-])o2)c1,inactive
9,Oc1ccc(N=Nc2ccccc2)o1,inactive
10,O=C(Oc1oc(-c2ccco2)nc1C=Nc1ccccc1)c1ccoc1,inactive
11,O=S1(=O)C=C(Sc2nc3ccccc3s2)c2ccccc21,inactive
12,COc1ccccc1OCCCc1c(C)n[nH]c1C,inactive
13,CCN1C(=O)/C(=C\C(=O)c2cccs2)c2cc(Br)ccc21,inactive
14,Cn1ncc2c(O/N=C(\N)c3ccc(C(C)(C)C)cc3)ncnc21,inactive
15,CSc1nnc2c3cc(F)ccc3n(C)c2n1,inactive
16,COc1ccc(NC2=C(Cl)C(=O)N(CCc3ccccc3)C2=O)cc1,inactive
17,COc1ccc(C2=CC(=O)N(Nc3ccccc3)C2=O)cc1,inactive
18,N=C1S/C(=C\c2ccco2)C(=O)N1c1nccs1,inactive
19,O=C(NCc1ccc2c(c1)OCO2)c1nc(S(=O)(=O)Cc2ccccc2)ncc1Cl,inactive
20,COc1ccccc1C(=O)NNC(=S)NC(=O)c1ccco1,inactive
21,O=C(NC(=S)NNC(=O)c1cnccn1)c1ccc(F)cc1,inactive
22,Cc1ccc(-c2nc(C)sc2CC(=O)Nc2nnc(C)s2)cc1,inactive
23,O=C1ON=C(c2ccc(Cl)cc2)/C1=C/c1ccc(O)cc1,inactive
24,CCCCS(=O)(=O)/C=C\C=C/S(=O)(=O)CCCC,inactive

row,SMILES,"GFP fluorescence, higher = induction"
1,Cc1ccc(C(=O)/C=C/C(=O)c2ccc(C)cc2)cc1,inactive
2,O=C(/C=C/c1ccc(Cl)c([N+](=O)[O-])c1)c1cccnc1,inactive
3,Clc1cnc(N/N=C/c2cccs2)c(Cl)c1,inactive
4,O=c1cc(CSc2ccc(Cl)cc2)nc(-c2ccccn2)[nH]1,inactive
5,O=C(Oc1oc(-c2ccco2)nc1C=Nc1ccccc1)c1ccco1,inactive
6,C/C(=N/NC(=O)c1ccc(C(C)(C)C)cc1)c1ccccn1,inactive
7,COc1ccc(OCC(=O)NNC(=S)NC(=O)C2CCCCC2)cc1,inactive
8,O=C1/C(=C\c2ccc(O)c(O)c2)SC(=S)N1Cc1ccccc1,inactive
9,O=c1cc(-c2ccccc2)cc(-c2ccccc2)n1O,inactive
10,CCN1/C(=C/C(C)=C/c2sc3ccccc3[n+]2CC)Sc2ccccc21,inactive
11,COc1cc(NC(=O)c2ccccc2[N+](=O)[O-])ccc1NC(=O)c1cc2ccccc2o1,inactive
12,CC(=O)SC(C[N+](=O)[O-])c1cn(C(C)=O)c2ccccc12 (centres undefined),inactive
13,O=C1NC(=O)N(Cc2ccc(F)cc2)C(=O)/C1=C/c1cccs1,inactive
14,COc1ccc(N2C(=O)C(Cl)=C(Nc3c(C)n(C)n(-c4ccccc4)c3=O)C2=O)cc1,inactive
15,Cc1ccc(/C=N/Nc2ncc(Cl)cc2Cl)s1,inactive
16,COc1ccccc1[C@]1(C)ON(c2ccccc2C(F)(F)F)C1=O,inactive
17,O=c1oc2cc(Oc3c([N+](=O)[O-])cc(C(F)(F)F)cc3[N+](=O)[O-])ccc2c2c1CCCC2,inactive
18,COc1ccc(C2=CC3=C(Br)C(=O)C(C)(O)C(=O)C3=CO2)cc1 (centres undefined),inactive
19,CCOC(=O)/C(=C\c1cn(C)c2ccccc12)[N+](=O)[O-],inactive
20,CCCN1CCc2c(sc(NC(=S)NC(=O)c3ccccc3)c2C#N)C1,inactive
21,N#Cc1ccc(N=c2ssnc2Cl)cc1,inactive
22,Oc1ccc(COCc2ccccc2)c2cccnc12,inactive
23,CCCS(=O)(=O)c1nnnn1-c1cccc(OC)c1,inactive
24,O=C(Sc1cccc2cccnc12)c1ccccc1Br,inactive

row,SMILES,"GFP fluorescence, higher = induction"
1,COC(=O)CCCC1=CC2=CC(=O)C(C)(OC(=O)CCc3ccccc3)C(=O)C2=CO1 (centres undefined),inactive
2,COc1cc(/C=C2\C(=O)ON=C2c2ccccc2)cc(Br)c1O,inactive
3,NC(=O)COc1ccc(C(=O)/C=C2/C(=O)Nc3ccccc32)cc1,inactive
4,Oc1c(I)cc(I)c2cccnc12,inactive
5,COc1ccc(N=Cc2nc(-c3ccccc3)oc2OC(C)=O)cc1,inactive
6,Cc1ccc(/C=c2\sc3nc(-c4cccs4)nn3c2=O)o1,inactive
7,Cc1ccc2nc(/C(C#N)=C/c3ccc(O)c(O)c3)[nH]c2c1,inactive
8,O=C(/C=C/Sc1ncn[nH]1)c1ccc(Cl)cc1,inactive
9,CC(=O)Oc1cccc(N2C(=O)c3cccc4c([N+](=O)[O-])ccc(c34)C2=O)c1,inactive
10,O=C(O)C1Sc2[nH]c(=O)sc2C2c3cc(Br)ccc3OC(=O)C12 (centres undefined),inactive
11,CN(C)c1ccc(/C=C/c2cc[n+](C)cc2)cc1,inactive
12,O=C1NC(=O)C(=Cc2ccc(-c3ccc(Cl)cc3)o2)C(=O)N1,inactive
13,CCOc1ccc(N2C(=O)/C(=C\c3cccs3)C(=O)NC2=S)cc1,inactive
14,O=C(Nc1nnc(-c2ccc(F)cc2)o1)c1cccc([N+](=O)[O-])c1,inactive
15,Cc1cccc(C)c1NC(=O)C(Cl)C(=O)c1ccccc1 (centres undefined),inactive
16,O=C(Nc1nnc(-c2ccc(F)cc2)o1)c1cc(Cl)sc1Cl,inactive
17,CC(C)(C)C(=O)NC(=S)NNC(=O)c1sc2ccccc2c1Cl,inactive
18,O=C(NC(=S)NNC(=O)c1ccc(Cl)cc1Cl)c1cccnc1,inactive
19,CC(C)Cn1c(=O)c(C(=O)Nc2ccncc2)c(O)c2ccccc21,inactive
20,Cc1nn2c(-c3ccncc3)nnc2c2ccccc12,inactive
21,O=[N+]([O-])c1c(Nc2ccccn2)cc(Cl)c2nonc12,inactive
22,O=C1C2C3C=CC(CO)(O3)C2C(=O)N1c1ccc(-c2ccccc2)cc1 (centres undefined),inactive
23,COc1ccc(C=C2C(=O)c3ccccc3C2=O)cc1O,inactive
24,Nc1nc2ncc(CNc3ccc(C(=O)N[C@@H](CCC(=O)O)C(=O)O)cc3)nc2c(=O)[nH]1,inactive

row,SMILES,"GFP fluorescence, higher = induction"
1,COCCN1C(=O)/C(=C/c2ccc(N3CCCC3)cc2C)SC1=S,inactive
2,O=[N+]([O-])c1ccc(-c2cn3nc(-c4ccccc4)c(-c4ccccc4)nc3n2)cc1,inactive
3,O=C(OCn1ncc(Br)c(Br)c1=O)c1ccccc1Cl,inactive
4,CC(Oc1cc2oc(=O)c3c(c2cc1Cl)CCC3)C(=O)NCCN1CCOCC1 (centres undefined),inactive
5,O=C(C#Cc1ccccc1)c1ccco1,inactive
6,CC1(C)OC(c2ccccc2)=C/C(=C/C=C2C(=O)NC(=S)NC2=O)O1,inactive
7,O=C(Oc1ccnc2cc(Cl)ccc12)N1CCCCCC1,inactive
8,O=C1NC(=S)NC(=O)C1=Cc1ccc2c(c1)CCN2CCCCl,inactive
9,O=C(Oc1c(Cl)cc(Cl)c2cccnc12)c1cccs1,inactive
10,O=C(/C=C/c1ccnc2ccccc12)c1cccs1,inactive
11,C[n+]1ccc(/C=C/c2c[nH]c3ccccc23)cc1,inactive
12,O=c1/c(=C/c2cccc3ccccc23)sc2ncnn12,inactive
13,CC(=O)N(C1=C(Cl)C(=O)c2ccccc2C1=O)C1CCCCC1,inactive
14,CCN(CC)C(=S)SSC(=S)N(CC)CC,inactive
15,O=c1oc(/C=C/c2ccc([N+](=O)[O-])s2)nc2ccccc12,inactive
16,Oc1c(C(Nc2nc3ccccc3s2)c2ccco2)ccc2cccnc12 (centres undefined),inactive
17,Oc1ccc2ccccc2c1N=Nc1nccs1,inactive
18,C=CCOc1cccc(C(=O)/C=C2/C(=O)Nc3ccccc32)c1,inactive
19,O=C(CCc1ccccc1)NNC(=S)NC(=O)c1ccccc1,inactive
20,O=C(Nc1ccccc1)c1nnsc1S(=O)(=O)c1ccc(Cl)cc1,inactive
21,COc1ccc(-c2cc3cc(C(=O)O)ccn3c2C(=O)c2ccccc2)cc1,inactive
22,CCCOc1ccc(C(=O)NNC(=S)NC(=O)c2ccccc2)cc1,inactive
23,CC[C@@]1(c2ccccc2OC)ON(c2ccccc2C(F)(F)F)C1=O,inactive

# Same assay, conditions: S. cerevisiae CIT2-GFP strain, flow cytometry fluorescence, 3 h
row,SMILES,EC50
1,Cc1ccc(O)c(N=Nc2nccs2)c1,11.3 µM
2,O=C(Nc1ccc(Cl)cc1)ON=C1CCCC1,1.23 µM
3,CCCOc1ccc(C(=O)NNC(=S)NC(=O)CC)cc1,3.1 µM
4,CC1(C)C[C@H]2C=C(C=O)[C@]3(C=O)C[C@]3(C)[C@H]2C1,1.41 µM
